Measured values reported in patent US9125930B2, “EGFR aptamer inhibitor for use in therapy and diagnosis” (CONSIGLIO NAZIONALE DELLE RICERCHE, priority 2010, dated 2015).

What was measured:
Calu1 = assay: Cell viability assay, Calu1 cells; format: cell-based, human; details: 200 nM-final concentration; not shown
Method: Cell viability was assessed with CellTiter 96® AQueous One Solution Cell Proliferation Assay (Promega, Madison, Wis.) according to according to the supplier's instructions. Cells (4×10^3 cells/well) were plated in 96-well plates in triplicate. and were treated for 24 hs with heat denatured CL4 42-81 or the scrambled aptamer at 3 μM concentration. RNA concentrations were determined to ensure the continuous presence of a concentration of at least 200 nM, which takes into account the 6 hs-half life of the aptamer in 10% serum. The optical density (OD) was measured using a Multilabel Counter (Bio-Rad) at a wavelength of 490 nm and cell viability was calculated by the following formula: Cell viability (%)=(OD treated cells/OD control cells)×100%. FACS Analysis

breast MCF7 = assay: Binding on MCF7 cells; parameters: species or system human; details: no or very low expression of EGFR; 100 nM
Method: Binding experiments were performed with 5′-[^32P]-labeled RNA. For labeling 2′-F-Py RNAs were 5′-end dephosphorylated using bacterial alcaline phosphatase (Invitrogen, Carlsbad, Calif.) before [^32P]-5′-end-labeled using T4 kinase (Invitrogen) and γ-[^32P]-ATP (6×10^3 Ci/mmol, GE Healthcare Bio-Sciences, Uppsala, Sweden) according to the supplier's instructions.
For binding experiments on cells, 3.5×10^4 cells were plated in 24-well plates in triplicate and were incubated with CL4 42-81 aptamer the scrambled sequence used as a negative control at 100 nM concentration in 200 μl of DMEM serum free for 20 min at RT in the presence of 100 μg/ml polyinosine as a nonspecific competitor (Sigma, St. Louis, Mo.). After five washings with 500 μl DMEM, bound sequences were recovered in 300 μl of SDS 1%, and the amount of radioactivity recovered was counted.

A549 tumors = assay: Tumor growth in A549 mouse xenograft; format: in vivo; details: day 16, with respect to CL4 scrambled control, 200 pmols intratumoral three times a week
Method: The volume injections are small enough to preclude the compounds being forced inside the cells due to a nonspecific high-pressure injection. Tumors were measured every 3 days with calipers in three dimensions. The following formula was used to calculate tumor volume: VT=(W×L×H)×0.5236 (W, the shortest dimension; L, the longest dimension; H, the intermediate dimension). The growth curves are plotted as the means tumor volume±s.e.m. Statistical analysis of tumor size data was conducted using a one-way ANOVA. A P-value of 0.05 or less was considered to indicate a significant difference. […]
Athymic CD-1 nude mice (nu/nu) were housed in a highly controlled microbiological environment, thus to guarantee specific pathogen free conditions. Mice were injected subcutaneously with 3×10^6 (in 100 μl) in vitro propagated A549. Sixteen non-necrotic tumors of about 0.5 cm in diameter were randomly divided into two groups of eight mice as follows: group 1, CL4 scrambled-treated; group 2, CL4 42-81-treated. Aptamers (200 pmols/injection) were injected intra-tumorally in 100-1 μl volumes three times a week for 16 days. Tumors were measured every 2 days.

STAT 3 = assay: Immunoblot of EGF-induced STAT3 phosphorylation; format: cell-based, human; details: data not shown
Method: (§1) To assess the effects of aptamers on EGFR activity, A549 cells (1.5×10^5 cells per 3.5-cm plate) were serum-starved over night, pretreated with 200 nM CL4 42-81 aptamer or the scrambled aptamer used as a negative control for 3 h and then stimulated for 30 min with 50 ng/ml EGF (R&D Systems, Minneapolis, Minn.) either alone or in presence of each aptamer. The aptamers were subjected to a short denaturation-renaturation step (85° C. for 5 min, snap-cooled on ice for 2 min, and allowed to warm up to 37° C.) before each treatment. To prepare cell extracts, cells were washed twice in ice-cold PBS, and lysed in buffer A (50 mM Tris-HCl pH 8.0 buffer containing 150 mM NaCl, 1% Nonidet P-40, 2 mg/ml aprotinin, 1 mg/ml pepstatin, 2 mg/ml leupeptin, 1 mM Na3VO4). Protein concentration was determined by the Bradford assay using bovine serum albumin as the standard. The cell lysates were subjected to SDS-PAGE. […]

ERK = assay: Immunoblot of EGF-induced ERK phosphorylation; format: cell-based, human; details: data not shown
Method: as §1

A549 cells = assay: Cell viability assay, A549 cells; format: cell-based, human
Method: Cell viability was assessed with CellTiter 96® AQueous One Solution Cell Proliferation Assay (Promega, Madison, Wis.) according to according to the supplier's instructions. […] The optical density (OD) was measured using a Multilabel Counter (Bio-Rad) at a wavelength of 490 nm and cell viability was calculated by the following formula: Cell viability (%)=(OD treated cells/OD control cells)×100%. FACS Analysis

CL4 42-81: 2′-fluoropyrimidine nuclease-resistant RNA aptamer of 39 nt: 5′ GCCUUAGUAACGUGCUUUGAUGUCGAUUCGACAGGAGGC 3′ (SEQ ID No. 1) (2'-fluoro at CU, RNA at AG, backbone not given here)
sensitivity of Calu1 cell viability (Calu1): same effect | binding on MCF7 cells (breast MCF7): does not bind | inhibition of tumor growth (tumor volume) (A549 tumors): 57% | EGF-induced phosphorylation of STAT 3 (STAT 3): decreases | EGF-induced phosphorylation of ERK (ERK): decreases | sensitivity of A549 cell viability (A549 cells; 200 nM-final concentration, 24 h): highly sensitive | cell viability (A549 cells; A549, 24 hs, 200 nM final concentration, relative to untreated cells set to 100%): about 60% | effectiveness on A549 cell viability in combination with gefitinib (A549 cells; CL4 42-81 100 and 200 nM with 1 μM gefitinib, 24 h): not improved
